Source: patent US20260193298A1, “SYNTHETIC PEPTIDE FOR USE IN AN IMMUNOMOLECULAR ASSAY” (BIOMÉRIEUX, priority 2022, published 2026)
Non-standard residues stand in square brackets, D forms with d. No end group written: not given here. Ado = 8-amino-2,4-dioxa octanoic acid

Key:
[1] = tested on: internal control proximity probes (18D12 anti-His tag and 2G4 anti-Lys tag antibodies coupled to MML or MMC oligonucleotides); assay: Dual-recognition immunoassay (PEA) of Bitag peptide spiked in PBS-BSA buffer, qPCR readout; assay type: binding, mouse; conditions: for Delta-Ct0-50: 0 vs 50 ng/mL peptide
Protocol: Proximity probes. Proximity probes were prepared by covalently linking purified PCT monoclonal antibodies to HPLC-purified oligonucleotides. […] Synthesis, modifications and HPLC-purification of the oligonucleotides were all performed by Integrated DNA Technologies (Louvain, Belgium). Antibody-oligonucleotide conjugates were generated using commercial Thunderlink kit (Abcam, Cambridge, UK), following the manufacturer's instructions, using a 5:1 oligonucleotide-to-antibody ratio. Conjugation quality was checked by running conjugates on a reducing 4-12% SDS-PAGE (Thermofisher, Waltham, MA, USA) followed by Coomassie Blue staining (Thermofisher) as recommended by the supplier's instructions (Abcam).
(§1) Proximity Extension Assay (PEA™). The Proximity extension assay protocol and the different buffers were taken over from the protocol initially described by Lundberg et al. and also from a recently developed shorter protocol (unpublished results). Proximity extension assay was performed in specific multi-well plates (Hard-Shell 96-Well Clear shell PCR Plates, BioRad, Hercule, CA, USA), in triplicate. Briefly, 5 μL of sample (PBS1x-0.1% BSA buffer or human EDTA plasma with or without rPCT and/or IC peptide) were mixed with 5 μL of a mix of the two PEA™ conjugates (500 pM each) diluted in the probe incubation buffer and incubated at 37° C. for 60 min. After probe incubation, a dilution buffer containing 40 mM of each dNTP were added. After a 5 minutes incubation step at 37° C., 96 μl extension mix containing 26 U/mL of T4 DNA Polymerase (Thermofisher) were added and incubated at 37° C. for an additional 3 minutes, followed by a heat inactivation step at 80° C.
(§2) Detection by qPCR. For qPCR detection, 4 μL of extension products were transferred to a qPCR plate and mixed with 36 μL of qPCR mix (SYBRGREEN mix, Bio-Rad) containing 0.6 μM of each PCR primer. A one-step qPCR was run with initial denaturation at 95° C. for 3 min, followed by 1 sec of denaturation at 95° C. and 10 sec annealing/extension at 63° C. for 40 cycles. Finally, a melt step was performed by increasing the temperature gradually from 60° C. to 95° C. at 0.5° C./sec.
Second, to determine the best combination of spacer size and oligonucleotide length, proximity probes were tested successively on the two Bitag 1 and Bitag 2 peptides. The first type of probes, called MML, featured a longer version of the oligonucleotides (49 and 56 bases), whilst the second type of probes, called MMC, featured a shorter version of the oligonucleotides (29 and 31 bases). For both MML and MMC, the size of the complementary sequence located at the 3′-end of each oligonucleotide was 9 nucleotides.
FIG. 2 summarizes the dual-recognition immunoassay results obtained for three concentrations of Bitag peptide (0, 5 and 50 ng/mL) spiked in PBS-BSA buffer.

[2] = tested on: 18D12 monoclonal antibody (anti-His tag); assay: Indirect ELISA on plates coated with Bitag peptide, detection with anti-His tag antibody; assay type: binding, mouse
Protocol: (§3) Enzyme Linked Immuno-Sorbant Assays (ELISA). After overnight sensitization with peptides diluted at 5 μg/mL in PBS buffer, pH 7.4 (Euromedex, Souffelweyersheim, France), Nunc 96-well plates (Thermofisher) were saturated for 1 h at room temperature (RT) with PBS1x-Bovine Serum Albumin 5% (BSA, Sigma-Aldrich, Saint Louis, MI, USA). After 4 washes with PBS1x-Tween20 0.1%, PBS1x-BSA 1% buffer containing the anti-tag antibody (at 1 μg/mL) was added and incubated for 1 h at 37° C. The developing with PNPP substrates (Thermofisher) was performed after 30 min of incubation at 37° C. with a 1/50 000 dilution in PBS-BSA-0.5% of an alkaline phosphatase (AP)-labeled streptavidin (Jackson Immunoresearch, Ely, UK). The absorbance level (optical density, OD) was red at 405 nm (OD405) using an Infinite M Nano+ microplate reader (Tecan, Mannedorf, Switzerland). All samples were tested in duplicate and in three independent experiments.
(§4) Selection and validation of the Bitag peptides and the proximity probes. First, to check that the anti-tag antibodies do bind to their epitopes in the context of the Bitag peptides, indirect ELISA was performed by sensitizing multiwall plates with either Bitag 1 or Bitag 2 peptides at two concentrations (1 μg/mL and 5 μg/mL). For the two coated peptides, 18D12 monoclonal antibody (anti-His tag) or 2G4 and 5F12 monoclonal antibodies (anti-Lys tag) were used for detection with an AP-labelled anti-mouse conjugate.

[3] = tested on: 2G4 monoclonal antibody (anti-Lys tag); assay: Indirect ELISA on plates coated with Bitag peptide, detection with anti-Lys tag antibody 2G4; assay type: binding, mouse
Protocol: as §3, §4

[4] = tested on: 5F12 monoclonal antibody (anti-Lys tag); assay: Indirect ELISA on plates coated with Bitag peptide, detection with anti-Lys tag antibody 5F12; assay type: binding, mouse; conditions: 5 μg versus 1 μg of peptide
Protocol: as §3
Selection and validation of the Bitag peptides and the proximity probes. First, to check that the anti-tag antibodies do bind to their epitopes in the context of the Bitag peptides, indirect ELISA was performed by sensitizing multiwall plates with either Bitag 1 or Bitag 2 peptides at two concentrations (1 μg/mL and 5 μg/mL). […]

[5] = tested on: internal control proximity probes MMC (18D12 and 2G4); assay: Dual-recognition immunoassay (PEA) of Bitag 2 peptide spiked in human plasma, MMC probes; assay type: binding, mouse; conditions: for loss of Delta-Ct in human plasma compared to PBS-BSA: pool of three plasma specimens
Protocol: Whole blood specimens were obtained from healthy donors from the French National Blood Bank (EFS, Etablissement Français du Sang, Lyon, France). Samples were selected on the basis of a negative PCT test. Fresh blood was centrifuged for five min at 20 000 g, at 4° C., using a refrigerated microcentrifuge (Eppendorf 5424R, Montesson, France). After centrifugation, the supernatant, which corresponds to the plasma, was recovered for Dual-recognition immunoassay and stored at 4° C. before use. For all biological samples, informed consent was obtained for any experimentation. All experiments were performed in compliance with the relevant laws and institutional guidelines and in accordance with the ethical standards of the Declaration of Helsinki.
as §1, §2
In order to confirm these preliminary results obtained on peptide diluted in the PBS-BSA buffer, PEA™ was performed, using MMC probes, on human plasma (pool of three plasma specimens) spiked with four concentrations of Bitag 2 peptide, from 0 to 500 ng/mL. The results are illustrated in FIG. 3a. Overall, while the assay presented a similar dynamic to that obtained in PBS-BSA buffer, Delta-Ct values appeared to be slightly lower compared to those obtained in PBS-BSA (loss of 0.26 and 0.36 for 5 ng/mL and 50 ng/mL of peptide, respectively). In addition, for 500 ng/mL, a significant loss of dynamic was observed (Delta-Ct50-500 of 0.9 versus Delta-Ct5-50 of 2.72).
Third, a Bitag 2 concentration suitable for internal control Dual-recognition immunoassay had to be chosen. […] To confirm the specificity of the results obtained with 50 ng/mL of Bitag 2 peptide, human plasma specimens were tested by Dual-recognition immunoassay after addition of 50 ng/mL of peptide (n=25 samples) or without peptide complementation (n=13 samples). According to a Mann-Whitney test, the difference between the two groups was significant (P<0.001).

[6] = tested on: procalcitonin (rPCT); assay: Interference of Bitag 2 peptide with procalcitonin dual-recognition immunoassay in PBS-BSA buffer; design: species or system human
Protocol: as §1, §2
Interference between procalcitonin and internal control. […] The results are illustrated in FIG. 4. For 0.1 ng/mL of rPCT, no significant difference was observed across the range of peptide concentrations added to the sample (mean=34.38±0.15).

[7] = tested on: procalcitonin (rPCT); assay: Procalcitonin and internal control DRI in parallel in PBS-BSA, PCR with primers specific of the PCT DRI probes; design: species or system human; conditions: 0 ng/mL PCT, PCT primer set
Protocol: as §1
as §2, with “Finally, a melt step was performed by increasing the temperature gradually from 60° C. to 95° C. at 0.5° C./sec.” left out

[8] = tested on: internal control proximity probes; assay: Procalcitonin and internal control DRI in parallel in PBS-BSA, PCR with internal control primer set; design: species or system mouse; conditions: rPCT 0 or 0.1 ng/mL; peptide 0 to 160 ng/mL
Protocol: as §1
as §2, with “Finally, a melt step was performed by increasing the temperature gradually from 60° C. to 95° C. at 0.5° C./sec.” left out

[9] = tested on: internal control proximity probes; assay: Internal control dual-recognition immunoassay in human plasma specimens spiked with rPCT and Bitag peptide; assay type: binding, mouse; conditions: Bitag peptide at 50 ng/mL
Protocol: as §1
as §2, with “Finally, a melt step was performed by increasing the temperature gradually from 60° C. to 95° C. at 0.5° C./sec.” left out

“MRGSHHHHHHSVDESNNNGKKKKKKSVDESL (MRGSHHHHHHSVDES[Ado][Ado][Ado]GKKKKKKSVDESL-NH2) [Bitag 2′, long His tag and long Lys tag, three spacer units; N is 8-amino-2,4-dioxa octanoic acid]” was tested, and the “results obtained with Bitag 2 peptide repeated with this peptide” value ([1]; data not shown) was “reproduced and confirmed”.
“MRGSHHHHHHNNGKKKKKKSV (MRGSHHHHHH[Ado][Ado]GKKKKKKSV-NH2) [Bitag 1, His tag and Lys tag separated by two Ado spacers; N is 8-amino-2,4-dioxa octanoic acid]” was tested, and the OD405 ([2]; 1 μg of Bitag 1 peptide, detection with 18D12) was 0.617, the “increase of OD405 for 5 μg of peptide” value ([2]; 5 μg versus 1 μg of peptide, 18D12) was “+0.262” and the “signal in the presence of peptide relative to signal without peptide” value ([2]; 18D12 antibody, 1 μg of Bitag 1) was 5.42 times. For the same sequence, the OD405 ([3]; 1 μg of Bitag 1 peptide, detection with 2G4) was 0.993, the “increase of OD405 for 5 μg of peptide” value ([3]; 5 μg versus 1 μg of peptide, 2G4) was “+0.089” and the “signal in the presence of peptide relative to signal without peptide” value ([3]; 2G4 antibody, 5 μg of Bitag 1) was 9.17 times. For the same sequence, the “increase of OD405 for 5 μg of peptide” value [4] was “+0.074” and the “Delta-Ct for MMC compared with MML probes” value ([1]; PBS-BSA buffer) was “higher”.
“MRGSHHHHHHNNNGKKKKKKSV (MRGSHHHHHH[Ado][Ado][Ado]GKKKKKKSV-NH2) [Bitag 2, His tag and Lys tag separated by 3 Ado spacers; N is 8-amino-2,4-dioxa octanoic acid]” was tested, and the “gain in Delta-Ct for MMC versus MML” value ([1]; 5 ng/mL of peptide, PBS-BSA buffer) was 2.32, the “gain in Delta-Ct for MMC versus MML” value ([1]; 50 ng/mL of peptide, PBS-BSA buffer) was 1.86 and the Delta-Ct0-50 ([1]; MMC probes, PBS-BSA buffer) was 7.08. For the same sequence, the Delta-Ct0-50 ([1]; MML probes, PBS-BSA buffer) was 5.22, the “Delta-Ct of the combination of MMC oligonucleotides and peptide, compared with the other combinations” value ([1]; peptide concentrations tested (5 and 50 ng/mL), PBS-BSA) was “highest Delta-Ct” and the “loss of Delta-Ct in human plasma compared to PBS-BSA” value ([5]; 5 ng/mL of peptide, MMC probes) was 0.26. The “loss of Delta-Ct in human plasma compared to PBS-BSA” value ([5]; 50 ng/mL of peptide, MMC probes) was 0.36, the Delta-Ct5-50 ([5]; human plasma, 5 vs 50 ng/mL peptide, MMC probes) was 2.72 and the Delta-Ct50-500 ([5]; human plasma, 50 vs 500 ng/mL peptide, MMC probes) was 0.9. For the same sequence, the “dynamic range of detection” value ([5]; short (MMC) oligonucleotides) was “about 3 orders of magnitude”, the “Ct of procalcitonin DRI” value ([6]; 0 ng/mL rPCT, 160 ng/mL of peptide) was 35.9 and the “Ct of procalcitonin DRI, average value for the other peptide concentrations” value ([6]; 0 ng/mL rPCT, peptide concentrations other than 160 ng/mL) was 36.98. The “Ct of procalcitonin DRI, mean across the range of peptide concentrations” value ([6]; 0.1 ng/mL rPCT, Bitag 2 from 0 to 200 ng/mL) was 34.38±0.15, the “Delta-Ct between sample with 40 ng of peptide and sample without peptide (background noise)” value [7] was 1.4 and the “interference of procalcitonin on Ct with internal control PCR primer set” value [8] was “no interference”. The “Ct mean value for the internal control” value ([9]; 0 ng/mL of PCT) was 33.53±0.11 and the “Ct mean value for the internal control” value ([9]; 10 ng/mL of PCT) was 34.23±0.40.
